# Assay results from ChEMBL document CHEMBL1157827, “The synthesis and biological evaluation of quinolyl-piperazinyl piperidines as potent serotonin 5-HT1A antagonists” (J Med Chem, 2010).
# Activity calls are given as the source filed them. The calls are words filed in the database; no cut-off is given here.
# Columns and labels:
# [1] = Clearance in Sprague-Dawley rat at 1 mg/kg, iv administered as single dose by LC/MS/MS analysis; format: ADME, organism-based; design: dose 1 mg/kg, route intravenous; details: in vivo
# [2] = Volume of distribution at steady state in Sprague-Dawley rat at 1 mg/kg, iv administered as single dose by LC/MS/MS analysis; format: ADME, organism-based; design: dose 1 mg/kg, route intravenous; details: in vivo, read-out: Vdss
# [3] = Cmax in Sprague-Dawley rat at 3 mg/kg, po administered as single dose by LC/MS/MS analysis; format: ADME, organism-based; design: dose 3 mg/kg, route oral; details: in vivo
# [4] = Tmax in Sprague-Dawley rat at 3 mg/kg, po administered as single dose by LC/MS/MS analysis; format: ADME, organism-based; design: dose 3 mg/kg, route oral; details: in vivo
# [5] = Half life in Sprague-Dawley rat at 3 mg/kg, po administered as single dose by LC/MS/MS analysis; format: ADME, organism-based; design: dose 3 mg/kg, route oral; details: in vivo
# [6] = AUC in Sprague-Dawley rat at 3 mg/kg, po administered as single dose by LC/MS/MS analysis; format: ADME, organism-based, Plasma; design: dose 3 mg/kg, route oral; details: Sprague-Dawley, plasma
# [7] = Oral bioavailability in Sprague-Dawley rat at 3 mg/kg administered as single dose by LC/MS/MS analysis; format: ADME, organism-based; details: Sprague-Dawley, in vivo
# [8] = Ratio of drug level in brain to plasma in Sprague-Dawley rat at 3 mg/kg, po administered as single dose; format: ADME, organism-based; design: dose 3 mg/kg, route oral; details: read-out: BPR
# Rattus norvegicus [9] = experiment: Effect on serotonin release in Sprague-Dawley rat cortex at 10 mg/kg, po after 40 mins microdialysis assay; format: functional, organism-based; design: dose 10 mg/kg
# Rattus norvegicus [10] = experiment: Inhibition of 8-OH-DPAT-induced decrease in extracellular serotonin level Sprague-Dawley rat cortex at 10 mg/kg, po administered 30 mins before 8-OH-DPAT challenge; format: functional, organism-based; design: dose 10 mg/kg
# in vitro [11] = details: rat, liver microsomes
# Description: Half life in rat liver microsomes at 1 uM after 20 mins
# in vitro [12] = details: human, liver microsomes
# Description: Half life in human liver microsomes at 1 uM after 20 mins
# [13] = molecular target: T1, 5-hydroxytryptamine receptor 1A (Homo sapiens, UniProt P08908)
# T1 sequence (P08908 whole entry): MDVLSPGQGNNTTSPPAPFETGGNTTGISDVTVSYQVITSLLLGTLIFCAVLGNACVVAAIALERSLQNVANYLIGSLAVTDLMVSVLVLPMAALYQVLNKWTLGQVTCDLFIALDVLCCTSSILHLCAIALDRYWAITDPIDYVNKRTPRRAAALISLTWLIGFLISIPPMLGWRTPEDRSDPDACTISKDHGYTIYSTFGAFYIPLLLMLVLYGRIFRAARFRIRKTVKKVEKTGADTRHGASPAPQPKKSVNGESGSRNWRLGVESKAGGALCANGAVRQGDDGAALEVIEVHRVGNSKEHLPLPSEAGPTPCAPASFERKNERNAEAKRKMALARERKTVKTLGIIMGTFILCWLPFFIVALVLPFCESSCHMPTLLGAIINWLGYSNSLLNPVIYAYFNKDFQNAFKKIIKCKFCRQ
# [14] = molecular target: T1, 5-hydroxytryptamine receptor 1A; experiment: biochemical
# Description: Displacement of [3H]8-OH-DPAT from human 5HT1A receptor expressed in CHO cells
SMILES,"half-life at 20 min, 1 µM (in vitro [11])","half-life at 20 min, 1 µM (in vitro [12])",IC50 [13],Ki [14],further results
COc1cc(N2CCN(C3CCN(c4ccc(F)c5c(OC)cc(C(F)(F)F)nc45)CC3)CC2)c2ncccc2c1,12 min,15 min,–,–,clearance [1]: 9 mL/min/kg; Vd [2]: 2.5 L/kg; Cmax [3]: 417 ng/mL; Tmax [4]: 120 min; half-life [5]: 288 min; AUC [6]: 3760 ng·h/mL; bioavailability [7]: 60%; Kp [8]: 0.2; Activity (Rattus norvegicus [9]): inactive; Activity (Rattus norvegicus [10]): Active
COc1cc(N2CCN(C3CCN(c4cccc5cc(F)cnc45)CC3)CC2)c2ncccc2c1,2 min,2 min,5.6 nM,0.79 nM,–
COc1cc(N2CCN(C3CCN(c4ccc(F)c5cc(F)cnc45)CC3)CC2)c2ncccc2c1,< 1 min,5 min,20 nM,0.47 nM,–
COc1cc(N2CCN(C3CCN(c4c(F)ccc5cccnc45)CC3)CC2)c2ncccc2c1,3 min,3 min,331 nM,276 nM,–
COc1cc(N2CCN(C3CCN(c4ccc(F)c5cc(C(F)(F)F)cnc45)CC3)CC2)c2ncccc2c1,9 min,27 min,15 nM,0.87 nM,–

# Now from value to compound, other results behind:
"half-life at 20 min, 1 µM (in vitro [11])","half-life at 20 min, 1 µM (in vitro [12])",IC50 [13],Ki [14],SMILES,further results
4 min,10 min,30 nM,–,COc1cc(N2CCN(C3CCN(c4cccc5cc(C(F)(F)F)cnc45)CC3)CC2)c2ncccc2c1,–
4 min,13 min,30 nM,2.1 nM,COc1cc(N2CCN(C3CCN(c4cccc5c(OC)cc(C(F)(F)F)nc45)CC3)CC2)c2ncccc2c1,–
3 min,3 min,2.8 nM,177 nM,COc1cc(N2CCN(C3CCN(c4ccc(F)c5c(C)cc(C)nc45)CC3)CC2)c2ncccc2c1,–
2 min,2 min,10 nM,0.61 nM,COc1cc(N2CCN(C3CCN(c4cc(Br)cc5cccnc45)CC3)CC2)c2ncccc2c1,–
